Key:
[1] = Stain removal from calcium deficient hydroxyapatite disks (human tooth model), tea stain; conditions: disk T: 1 mL of 3% hydrogen peroxide + 0.5 g sodium bicarbonate, applied twice, 5 minutes, water soak 45 minutes
Procedure: Tea staining Solution: 200 mL of high-purity deionized (HPDI) water was heated to boiling in a 500-mL beaker. The beaker was removed from heat and 4 Lipton™ tea bags were added. The tea bags were allowed to soak for 5 minutes. The tea bags were pressed with a spatμLa upon removal to remove liquid.
Tea staining Procedure: A calcium-deficient hydroxyapatite (HAP) disk (Clarkson Chromatography Products) was placed into a 50-mL centrifuge tube with 10 mL of tea solution. The centrifuge tube was gently shaken by hand for 15 minutes. The tea solution was decanted and replaced with 10 mL of HPDI water and vortexed for 30 seconds. The water was decanted and replaced with 10 additional mL of HPDI water and vortexed for 30 seconds. The disk was removed with forceps and patted dry with a tissue. The disk was allowed to air dry at room temperature for at least one hour.
Oxidation resistant chelating buffer: 0.25M 1-Hydroxyethylidenediphosphonic acid (etridonic acid) (Dequest® 2010, Thermphos) (HEPA) was pH adjusted by microtitration with 10N NaOH. 1.28 g of 1-Hydroxyethylidenediphosphonic acid was to a 25-mL volumetric flask and brought to volume with HPDI water. The solution was transferred to a 50-mL beaker with a stir bar and pH adjusted using 10.04N NaOH, monitored with a calibrated pH meter. Aliquat 336® (Cognis) (also suitable is Aliquat 134®) (N-methyl-tri-(n-octyl)ammonium chloride), (N-methyl TOA) or “HEPA” chelating pH Buffer: 2.5-μL of N-methyl TOA was added to 5 mL of pH 7 HEPA buffer and sonicated for 1 minute. pH 7 Sodium Dodecyl Sulfate (SDS)/HEPA Buffer: 10 mg of SDS was added to 5 mL of pH 7 HEPA buffer and sonicated for 1 minute. pH 8 SDS/HEPA Buffer: 10 mg of SDS was added to 5 mL of pH 8 HEPA buffer and sonicated for 1 minute.
• A. A tea stained disk was placed into the bowl of the bowl of a watch glass and 100 μL of pH 7 HEPA buffer was pipetted onto the disk surface. 3.7 mg of potassium ferrate(VI) was added to the disk surface and mixed gently. […] The disk was rinsed at 10 minutes with HPDI water. […] 1 mL of pH 7 HEPA buffer was added followed by 9 mL of HPDI water. 9.7 mg of potassium ferrate(VI) was added. The tube was gently hand shaken for 10 minutes. The disk was removed and rinsed with HPDI water. […] 10 mg of potassium ferrate(VI) was added to 1 mL of pH 7 HEPA buffer in a 50 mL centrifuge tube. 9 mL HPDI water was added, and the solution was shaken for a few seconds followed by the addition of a tea stained HAP disk. The disk was removed at 10 minutes and rinsed with HPDI water. […] 1.3 mg of potassium ferrate(VI) added and mixed into the solution.

[2] = Reactivity of ferrate(VI) in nonpolar media; assay type: physicochemical; conditions: such as oils, solvents, waxes

| reactivity in nonpolar media [2] | Compound | L* (lightness/darkness) [1] | a* (blue/red) [1] | appearance of disk after treatment [1] | b* (yellow/green) [1] | reflectance of visible light at 450 nm [1] | reflectance of visible light at 750 nm [1] | ΔE (versus tea stain) [1] |
| --- | --- | --- | --- | --- | --- | --- | --- | --- |
|  | OO [hydrogen peroxide, reference compound] | 96.9 | 0.4 | Much of the color was removed | 0.3 | 89.892 | 94.030 | 13.44 |
| unreactive | ferrate(VI) |  |  |  |  |  |  |  |
